Results reported in the supplement of paper PMC10307832.

Legend:
Experiment in all cases: relative viability (nuclei count vs DMSO), 5 days (fraction); higher = more cells survive
[1] = test system: LCLC-103H
Summary of the method: (§1)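 Relative viability divides the nuclei count in treated wells by that in vehicle wells. Lung cancer cell lines were seeded in 1536-well plates, dosed by pin tool the next day, and fixed and stained after 5 days in one step with final 0.05% Triton X-100, 1% formaldehyde and 1 ug/ml Hoechst. Dosing was a single drug or a fixed anchor-drug dose plus five library-drug doses (not always all listed) in √10 steps, and values are medians of duplicate plates imaged at 4×.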

[2] = test system: PC-3 [JPC-3]
Summary of the method: as §1

[3] = test system: NCI-H441
Summary of the method: as §1

[4] = test system: LOU-NH91
Summary of the method: as §1

[5] = test system: NCI-H596
Summary of the method: as §1

[6] = test system: NCI-H1793
Summary of the method: as §1

[7] = test system: ChaGo-K-1
Summary of the method: as §1

[8] = test system: NCI-H322M
Summary of the method: as §1

[9] = test system: EPLC-272H
Summary of the method: as §1

[10] = test system: NCI-H1651
Summary of the method: as §1

[11] = test system: NCI-H1755
Summary of the method: as §1

[12] = test system: NCI-H2228
Summary of the method: as §1

For `Cc1cn(-c2cc(NC(=O)c3ccc(C)c(Nc4nccc(-c5cccnc5)n4)c3)cc(C(F)(F)F)c2)cn1` [Nilotinib] + Nc1nc2[nH]cc(CCc3ccc(C(=O)N[C@@H](CCC(=O)O)C(=O)O)cc3)c2c(=O)[nH]1 [Pemetrexed] (partner 0.2 µM), which relative viability ([1]; first compound 0.003162 µM) is on record?
Its relative viability is 0.409.

What about the relative viability ([1]; first compound 0.01 µM) of the same compound?
The relative viability was 0.438.

What about the relative viability ([1]; first compound 0.03162 µM) of the same compound?
Its relative viability is 0.467.

What about the relative viability ([1]; first compound 0.1 µM) of the same compound?
The relative viability was 0.351.

What about the relative viability ([2]; first compound 0.001 µM) of the same compound?
Its relative viability is 1.02.

And the relative viability ([2]; first compound 0.01 µM)?
The relative viability was 0.889.

What about the relative viability ([2]; first compound 0.03162 µM) of the same compound?
The relative viability was 1.05.

What about the relative viability ([2]; first compound 0.1 µM) of the same compound?
The relative viability was 0.599.

And the relative viability ([3]; first compound 0.001 µM)?
Its relative viability is 0.261.

What about the relative viability ([3]; first compound 0.003162 µM) of the same compound?
The relative viability was 0.26.

What about the relative viability ([3]; first compound 0.01 µM) of the same compound?
Its relative viability is 0.225.

And the relative viability ([3]; first compound 0.03162 µM)?
The relative viability was 0.229.

What about the relative viability ([3]; first compound 0.1 µM) of the same compound?
Its relative viability is 0.186.

What about the relative viability ([4]; first compound 0.001 µM) of the same compound?
The relative viability was 0.376.

And the relative viability ([4]; first compound 0.003162 µM)?
The relative viability was 1.11.

What about the relative viability ([4]; first compound 0.01 µM) of the same compound?
Its relative viability is 0.374.

And the relative viability ([4]; first compound 0.03162 µM)?
The relative viability was 0.384.

And the relative viability ([4]; first compound 0.1 µM)?
Its relative viability is 0.403.

And the relative viability ([5]; first compound 0.001 µM)?
The relative viability was 0.49.

What about the relative viability ([5]; first compound 0.003162 µM) of the same compound?
The relative viability was 0.423.

And the relative viability ([5]; first compound 0.01 µM)?
Its relative viability is 0.491.

And the relative viability ([5]; first compound 0.03162 µM)?
The relative viability was 0.513.

And the relative viability ([5]; first compound 0.1 µM)?
The relative viability was 0.371.

What about the relative viability ([6]; first compound 0.001 µM) of the same compound?
Its relative viability is 0.996.

And the relative viability ([6]; first compound 0.003162 µM)?
Its relative viability is 0.965.

What about the relative viability ([6]; first compound 0.01 µM) of the same compound?
The relative viability was 1.07.

What about the relative viability ([6]; first compound 0.03162 µM) of the same compound?
Its relative viability is 0.903.

What about the relative viability ([6]; first compound 0.1 µM) of the same compound?
Its relative viability is 0.359.

And the relative viability ([7]; first compound 0.001 µM)?
Its relative viability is 0.27.

What about the relative viability ([7]; first compound 0.003162 µM) of the same compound?
The relative viability was 0.244.

And the relative viability ([7]; first compound 0.01 µM)?
Its relative viability is 0.228.

And the relative viability ([7]; first compound 0.03162 µM)?
Its relative viability is 0.229.

And the relative viability ([7]; first compound 0.1 µM)?
The relative viability was 0.215.

And the relative viability ([8]; first compound 0.001 µM)?
The relative viability was 0.757.

What about the relative viability ([8]; first compound 0.003162 µM) of the same compound?
The relative viability was 0.774.

And the relative viability ([8]; first compound 0.01 µM)?
Its relative viability is 0.576.

And the relative viability ([8]; first compound 0.03162 µM)?
The relative viability was 0.593.

What about the relative viability ([8]; first compound 0.1 µM) of the same compound?
Its relative viability is 0.645.

And the relative viability ([9]; first compound 0.001 µM)?
The relative viability was 0.239.

What about the relative viability ([9]; first compound 0.003162 µM) of the same compound?
Its relative viability is 0.324.

What about the relative viability ([9]; first compound 0.01 µM) of the same compound?
The relative viability was 0.195.

What about the relative viability ([9]; first compound 0.03162 µM) of the same compound?
The relative viability was 0.309.

And the relative viability ([9]; first compound 0.1 µM)?
The relative viability was 0.171.

What about the relative viability ([10]; first compound 0.001 µM) of the same compound?
Its relative viability is 0.571.

What about the relative viability ([10]; first compound 0.003162 µM) of the same compound?
The relative viability was 0.616.

And the relative viability ([10]; first compound 0.01 µM)?
The relative viability was 0.732.

And the relative viability ([10]; first compound 0.03162 µM)?
Its relative viability is 0.556.

And the relative viability ([10]; first compound 0.1 µM)?
The relative viability was 0.249.

And the relative viability ([11]; first compound 0.001 µM)?
Its relative viability is 0.41.

And the relative viability ([11]; first compound 0.003162 µM)?
The relative viability was 0.383.

What about the relative viability ([11]; first compound 0.01 µM) of the same compound?
The relative viability was 0.328.

What about the relative viability ([11]; first compound 0.03162 µM) of the same compound?
Its relative viability is 0.306.

And the relative viability ([11]; first compound 0.1 µM)?
Its relative viability is 0.361.

And the relative viability ([12]; first compound 0.001 µM)?
The relative viability was 0.358.

And the relative viability ([12]; first compound 0.003162 µM)?
The relative viability was 0.357.

What about the relative viability ([12]; first compound 0.01 µM) of the same compound?
Its relative viability is 0.282.

What about the relative viability ([12]; first compound 0.03162 µM) of the same compound?
Its relative viability is 0.216.

And the relative viability ([12]; first compound 0.1 µM)?
The relative viability was 0.165.
